# Assay results published in patent US20150148393A1, “COSMETIC AND/OR PHARMACEUTICAL COMPOSITION FOR THE TREATMENT OF SKIN INFLAMMATION AND RELATED SYNDROMES” (GENERAL TOPICS S.R.L., priority 2012, published 2015).
# Tested on: TNF alpha release from human keratinocytes
# Experiment: Inhibition of SLS-induced TNF alpha release from human keratinocytes
# Format: cell-based
# Settings: release induced by sodium lauryl sulphate (SLS), after a 24 hour-period
# Source text: A comparison was made between the inhibition of TNF alpha release from human keratinocytes as induced by contact with sodium lauryl sulphate (SLS) and obtained with the use of methyl sulfonyl methane (MSM), and that obtained with the use of hydrocortisone, a compound known to be active in inhibiting the release of TNF alpha. […] Therefore, the studies performed pointed out that MSM can decrease both the release of TNF alpha (this cytokine is expressed by keratinocytes in an inflammatory process of the skin) and the overall intensity of erythema even when TNF alpha is over-expressed by ultraviolet radiations. […] Moreover, it should be noted that TNF alpha can activate TRPV receptors and, therefore, a decrease in the production thereof can prevent it from exerting an agonist effect on the receptors themselves.
row,Structure (SMILES),percentage decrease of TNF alpha release [%]
1,C[C@]12CCC(=O)C=C1CC[C@@H]1[C@@H]2[C@@H](O)C[C@@]2(C)[C@H]1CC[C@]2(O)C(=O)CO [hydrocortisone],5.25
2,"CS(C)(=O)=O [MSM, methyl sulfonyl methane]",12.33
